Measurements published in the supplement of paper PMC10307832.

Experiments:
Experiment in all cases: relative viability (nuclei count vs DMSO), 5 days (fraction); higher = more cells survive
BI-D1870 + Vorinostat = compound: CC(C)CCN1c2nc(Nc3cc(F)c(O)c(F)c3)ncc2N(C)C(=O)C1C [BI-D1870] + O=C(CCCCCCC(=O)Nc1ccccc1)NO [Vorinostat] (partner 1 µM)
Procedure, shortened: (§1)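 Lung cancer cell lines were pin-tool dosed in 1536-well plates on the day after seeding, with either a lone drug or a fixed anchor-drug dose plus five library-drug doses (not always all listed) in √10 steps. Nuclei were counted on 4× images after 5 days. Relative viability is the ratio of treated-well to vehicle-well nuclei counts, with each value a median of duplicate plates.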

Zebularine + Dasatinib = compound: O=c1ncccn1[C@@H]1O[C@H](CO)[C@@H](O)[C@H]1O [Zebularine] + Cc1nc(Nc2ncc(C(=O)Nc3c(C)cccc3Cl)s2)cc(N2CCN(CCO)CC2)n1 [Dasatinib] (partner 0.075 µM)
Procedure, shortened: as §1

Zebularine + Decitabine = compound: O=c1ncccn1[C@@H]1O[C@H](CO)[C@@H](O)[C@H]1O [Zebularine] + Nc1ncn([C@H]2C[C@H](O)[C@@H](CO)O2)c(=O)n1 [Decitabine] (partner 2 µM)
Procedure, shortened: as §1

Zebularine + Vorinostat = compound: O=c1ncccn1[C@@H]1O[C@H](CO)[C@@H](O)[C@H]1O [Zebularine] + O=C(CCCCCCC(=O)Nc1ccccc1)NO [Vorinostat] (partner 1 µM)
Procedure, shortened: as §1

Cell Line	relative viability (BI-D1870 + Vorinostat; first compound 0.04 µM)	relative viability (BI-D1870 + Vorinostat; first compound 0.1265 µM)	relative viability (BI-D1870 + Vorinostat; first compound 0.4 µM)	relative viability (BI-D1870 + Vorinostat; first compound 1.265 µM)	relative viability (BI-D1870 + Vorinostat; first compound 4 µM)	relative viability (Zebularine + Dasatinib; first compound 1 µM)	relative viability (Zebularine + Dasatinib; first compound 3.162 µM)	relative viability (Zebularine + Dasatinib; first compound 31.62 µM)	relative viability (Zebularine + Dasatinib; first compound 100 µM)	relative viability (Zebularine + Decitabine; first compound 1 µM)	relative viability (Zebularine + Decitabine; first compound 3.162 µM)	relative viability (Zebularine + Decitabine; first compound 10 µM)	relative viability (Zebularine + Decitabine; first compound 31.62 µM)	relative viability (Zebularine + Decitabine; first compound 100 µM)	relative viability (Zebularine + Vorinostat; first compound 1 µM)	relative viability (Zebularine + Vorinostat; first compound 3.162 µM)	relative viability (Zebularine + Vorinostat; first compound 10 µM)	relative viability (Zebularine + Vorinostat; first compound 31.62 µM)	relative viability (Zebularine + Vorinostat; first compound 100 µM)	relative viability (Zebularine + Dasatinib; first compound 10 µM)
NCI-H3122	1.05	0.633	0.858	1.21	0.998	0.981	0.79	0.889	0.918	0.507	0.475	0.411	0.411	0.532	1.14	0.937	0.792	1.09	0.996	
NCI-H1975	0.747	0.617	0.686	0.664	0.425	0.328	0.408	0.247	0.173	0.428	0.346	0.345	0.35	0.267	0.731	0.728	0.465	0.556	0.321	0.253
NCI-H1944	0.894	0.5	0.484	0.57	0.405	0.202	0.199	0.215	0.193	0.455	0.424	0.449	0.461	0.395	0.534	0.573	0.414	0.603	0.458	0.221
LU99A	0.584	0.422	0.412	0.428	0.345	0.722	0.523	0.325	0.116	0.906	0.813	0.61	0.392	0.215	0.536	0.513	0.414	0.379	0.174	0.44
SW 1573	1.07	0.6	0.99	0.619	0.448	0.555	0.523	0.548	0.475	0.525	0.424	0.341	0.582	0.555	0.964	0.689		0.772	0.521	
NCI-H2347	0.524	0.677	0.597	0.776	0.545	0.309	0.322	0.227	0.254	0.658	0.598	0.544	0.575	0.371	0.608	0.653	0.457	0.431	0.387	0.302
NCI-H2009	0.776	0.629	0.76	0.599	0.461	0.371	0.316	0.309	0.231	0.386	0.36	0.33	0.383	0.266	0.728	0.679	0.625	0.63	0.241	0.263
HCC-15	0.81	0.782	0.786	0.987	0.678	0.759	0.577	0.486	0.27	0.683	0.575	0.36	0.684	0.487	0.986	0.9	0.665	0.759	0.436	0.494
HCC-44	1.14	1.07	1.16	1.14	1.14					0.981	0.929	0.946	1.03	0.585	1.15	1.14	1.09	1.19	0.553	
COR-L23	0.615	0.402	0.494	0.5	0.269	0.616	0.442	0.239	0.211	0.407	0.368	0.408	0.363	0.202	0.511	0.475	0.389	0.299	0.174	0.373
HCC-78	0.438	0.408	0.392	0.497	0.381	0.385	0.428	0.37	0.278	0.732	0.643		0.663	0.449	0.535	0.462		0.444	0.337	0.22
NCI-H727	1.32	1.22	0.986	1.19	1.08	0.383		0.349	0.356	0.855	0.903	0.867	0.84	0.826	1.18	1.14	0.971	1.26	1.08	
NCI-H2087	0.634	0.595	0.96	0.92	0.849	1.14	0.786	0.972	0.631	0.322	0.294	0.207	0.279	0.223	1.1	0.652	0.285	0.667	0.303	0.426
BEN	0.538	0.504	0.595	0.628	0.534	0.32	0.303	0.223	0.146	0.821	0.686	0.545	0.495	0.371	0.701	0.603	0.486	0.411	0.373	0.253
NCI-H2228	0.889	0.512	0.824	0.959	0.32	0.606	0.518	0.448	0.222						0.825	0.671		0.412	0.377	0.322
NCI-H1563						0.498	0.528	0.406	0.466											0.527
A549										0.219	0.251		0.267	0.185						
NCI-H1623						0.632	0.47	0.53	0.386											0.459
IA-LM	1.02	0.927	0.913	1.08	0.874										1.01	0.697	0.365	1.02	0.854	
CAL-12T	1.07	0.675	0.716	0.666	0.352	0.462	0.623	0.451	0.414						1.16	0.96	0.452	0.897	0.54	0.238
